Results from paper PMC9607599, “Dual Targeting Ligands—Histamine H3 Receptor Ligands with Monoamine Oxidase B Inhibitory Activity—In Vitro and In Vivo Evaluation” (Pharmaceutics, 2022).

Columns and labels:
[1] = molecular target: T1, human MAO B (hMAO B) (Homo sapiens, UniProt P27338); test: fluorometric MAO assay (p-tyramine substrate); assay type: biochemical; settings: fluorometric MAO assay; mean ± SEM of 2–4 independent experiments
T1 sequence (P27338 1-520): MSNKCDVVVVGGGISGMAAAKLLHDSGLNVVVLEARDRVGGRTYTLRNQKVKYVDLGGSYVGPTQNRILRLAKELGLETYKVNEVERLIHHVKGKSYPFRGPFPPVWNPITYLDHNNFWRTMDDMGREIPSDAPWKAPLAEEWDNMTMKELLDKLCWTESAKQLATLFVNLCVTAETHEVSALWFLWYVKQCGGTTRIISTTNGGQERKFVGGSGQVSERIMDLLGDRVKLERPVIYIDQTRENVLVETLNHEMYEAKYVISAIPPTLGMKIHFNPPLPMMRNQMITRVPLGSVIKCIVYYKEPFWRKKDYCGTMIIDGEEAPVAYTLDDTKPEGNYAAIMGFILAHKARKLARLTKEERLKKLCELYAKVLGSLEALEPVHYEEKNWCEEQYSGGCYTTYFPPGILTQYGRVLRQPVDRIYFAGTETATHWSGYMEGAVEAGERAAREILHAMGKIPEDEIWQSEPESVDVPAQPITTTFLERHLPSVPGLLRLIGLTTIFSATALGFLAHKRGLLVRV
Protocol: The precise method was described in [6]. First, compounds 4–32 were screened for hMAO B inhibitory activity at 1 μM concentration by the fluorometric method. Para-tyramine (200 μM) was used as a substrate for the enzyme and safinamide (1 μM) was used as a reference compound. […] Each experiment was performed in duplicate.
All compounds were first screened for hMAO B inhibitory activity at the concentration of 1 μM. […] Based on the results, we selected compounds 9 and 13 for further analysis.

[2] = molecular target: T2, MAO B (Homo sapiens, UniProt P27338); test: reversibility of MAO B inhibition (reactivation by excess p-tyramine, with/without preincubation); assay type: biochemical; settings: inhibitor at IC80
T2 sequence (P27338 1-520): T1 sequence (P27338 1-520)
Protocol: The reversibility of the MAO inhibition was tested as described in [6, 7]. […] Two variants of experiment were performed. […] After 22 min, the concentration of the substrate was increased to 200 µM and the signal was measured for 5 h.

[3] = parallel artificial membrane permeability assay (PAMPA); assay type: in vitro ADME
[4] = MTT cell viability test on human astrocytes; assay type: cell-based; settings: human; 24 h; at 0.15 and 0.25 mg/mL; read-out: decline in cell viability in comparison to the control level
Protocol: The studies were performed on a commercially-available astrocyte cell line isolated from human cerebral cortex (ScienCell Research Laboratories, San Diego, CA, USA; Cat no. 1800). The cells (passage 7–8) were seeded into a 96-well plate at an amount of 10,000 cells/well and kept in accordance with the ScienCell Research Laboratories’ protocol, i.e., in astrocyte medium supplemented with 2% fetal bovine serum, 10% astrocyte growth supplement and 1% penicillin/streptomycin solution, in an atmosphere with 5% CO2 at 37 °C. The cells were allowed to grow for 24 h and then treated with increasing concentrations of test compounds (0.01–0.25 mg/mL) for 24 and 72 h. Astrocytes in the medium on each plate (regardless of the factors tested) were used as a positive control.
The viability of the astrocyte cell line was determined calorimetrically using 3-(4,5-dimethylthazol-2-yl)-2,5-diphenyltetrazolium bromide (MTT; Sigma-Aldrich Chemical Co. Ltd., Saint Louis, MO, USA) as described earlier. […] After the incubation time (24 or 72 h) with examined drugs, 50 μL MTT solution (1 mg/mL) was added to each well of the plate for another 4 h. The method is based on the reduction of a yellow tetrazolium salt (MTT) into purple formazan crystals by mitochondrial succinate-tetrazolium reductase system which is metabolically active in viable cells. At the end of the experiment, the cells were treated with 100 μL dimethyl sulphoxide, which enabled the release of the reaction product.
The absorbance was measured at 570 nm using a BioTek EL×800 microplate reader (BioTek, Winooski, Vermont, USA) and results were expressed as a percentage of the absorbance measured in control cells. The obtained values were plotted against different concentrations of each compound to calculate the viability inhibition concentration at 50% (IC50) using GraphPad Prism 6.07 (GraphPad Software, Inc., San Diego, CA, USA). The experiment was repeated in quadruplicate.
For the cytotoxicity assessment in the MTT assays, each test drug was used at 8 concentrations (range: 0.01–0.25 mg/mL).

[5] = molecular target: T1, human MAO B (hMAO B); test: modality of hMAO B inhibition (Michaelis-Menten / Lineweaver-Burk); assay type: biochemical
Protocol: Modality of hMAO B inhibition was evaluated for compounds 9 and 13 and the reference safinamide according to the method described previously. Three concentrations of inhibitors, corresponding to their IC20, IC50 and IC80 values, were used. Each experiment was performed in triplicate. KM and Vmax values were calculated from Michaelis–Menten curves by nonlinear regression from the substrate. Lineweaver–Burk plots were calculated using linear regression in GraphPad Prism 6.07 (GraphPad Software, San Diego, CA, USA).
For testing modality of enzyme inhibition, we used three concentrations of inhibitors that corresponded to their IC20, IC50 and IC80 values. Substrate (p-tyramine) was used at concentrations: 0.05, 0.1, 0.5, 1.0, 1.5 and 2.0 mM.

[6] = molecular target: human histamine H3 receptor (hH3R) (Homo sapiens, UniProt Q9Y5N1); test: [3H]Nα-methylhistamine radioligand binding assay in CHO-K1 cells stably expressing hH3R; design: expressed in transfected cells; host or cells: CHO-K1; settings: CHO-K1 cells; [3H]Nα-methylhistamine; mean ± SEM of three independent experiments; read-out: hH3R Ki [nM] ± SEM
Protocol: Affinity to hH3R stably expressed in CHO-K1 [6] or HEK293 [11] cells was evaluated in a radioligand binding assay as described previously. Briefly, 10 mM stock solutions of the test compounds in DMSO were prepared. Each compound was tested at eight concentrations ranging from 10^−5 to 10^−12 M (final concentration). All assays were carried out in duplicate. […] The radioactivity was counted in MicroBeta 2 [6] or MicroBeta Trilux counter (PerkinElmer). Data were fitted to a one-site curve-fitting equation with Prism 6 (GraphPad Software, San Diego, CA, USA) and Ki values were calculated from IC50 values (from at least three experiments performed in duplicates) according to the Cheng−Prusoff equation [12].
Affinity for hH3R was evaluated in a radioligand binding assay using [^3H]N^α-methylhistamine as radioligand in CHO K1 or HEK293 cells stably expressing hH3R as described previously. […] Then, those with at least 50% inhibition for hH3R were selected for further testing (Ki evaluation). […] Compounds were tested in the binding assay in HEK293 cells.

[7] = inhibitor at IC20, IC50, IC80, p-tyramine 0.05–2.0 mM

human histamine H3 receptor (hH3R), sequence (Q9Y5N1 whole entry): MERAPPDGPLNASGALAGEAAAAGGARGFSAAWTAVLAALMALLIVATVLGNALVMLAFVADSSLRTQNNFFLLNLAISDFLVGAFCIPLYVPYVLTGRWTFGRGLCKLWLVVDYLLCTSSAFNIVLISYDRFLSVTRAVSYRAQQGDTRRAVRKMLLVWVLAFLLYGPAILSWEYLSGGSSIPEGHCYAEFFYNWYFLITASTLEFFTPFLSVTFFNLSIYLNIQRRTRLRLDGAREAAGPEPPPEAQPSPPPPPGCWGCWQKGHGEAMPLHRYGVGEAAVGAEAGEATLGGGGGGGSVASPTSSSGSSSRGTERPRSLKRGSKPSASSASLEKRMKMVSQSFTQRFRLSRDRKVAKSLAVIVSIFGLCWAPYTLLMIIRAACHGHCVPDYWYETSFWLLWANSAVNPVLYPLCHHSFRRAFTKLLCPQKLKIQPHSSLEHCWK

## CC1CCCN1CCCOc1ccc(C(C)(C)C)cc1.O=C(O)C(=O)O (centres unmarked) [Compound 13, 1-(3-(4-(tert-Butyl)phenoxy)propyl)-2-methylpyrrolidine hydrogen oxalate]
[1]
  IC50: 4 ± 0.3 nM
[2]
  effect of 30 min preincubation on inhibition (preincubated vs non-preincubated): did not show differences between the variants
[2]; excess p-tyramine 200 µM
  reversibility of MAO B inhibition: reversible inhibition
[3]
  permeability in PAMPA, in words: high permeability
[3]; PAMPA, triplicate, breakpoint for permeable compounds Pe ≥ 1.5×10^−6 cm/s
  Pe (×10^−6cm/s) ± SD: 16.72 ×10^−6cm/s
[3]; PAMPA, triplicate, breakpoint for permeable compounds Pe ≥ 1.5×10^−6 cm/s, read-out: Pe ± SD
  Papp: 16.72 ± 0.06 ×10⁻⁶ cm/s
[4]
  viability at 24 h: > 95%
[5]
  Affinity (free enzyme vs enzyme-substrate complex): Free enzyme ≈ enzyme-substrate complex
  Mode of inhibition from kinetic values and LB plot: noncompetitive inhibition
[5]; Lineweaver–Burk double-reciprocal plot
  Lines on LB plot: Lines intersect to the left of y-axis directly on x-axis
[5]; [7]
  app. KM: No effect ^a
  app. Vmax: ↓ curvilinearly with ↑ [I]
  app. Vmax/app. KM: ↓ curvilinearly with ↑ [I]
[6]
  Ki: 25 ± 9 nM
